Each structure is given as a SMILES string.

One test concerns rat MCAO model of stroke. The test is described as follows: in vivo assay on brain injury following MCAO. Set-up: species or system Sprague-Dawley rats. Particulars: 30 mg/kg IV bolus + 6 mg/kg/hr IV infusion 4 hours, 120 minutes post-occlusion. The method, then:
The control group received Hepes buffered saline.
Four drug treated groups received Compound 1. For each rat, the treatment was initiated at 60 minutes post middle cerebral artery occlusion (MCAO) by an IV bolus injection which was immediately followed by IV infusion for 4 hours at rate of 0.5 ml/hr. Group 1 (n=9) received a dose of 100 mg/kg IV bolus followed by 20 mg/kg/hr IV infusion for 4 hours. Group 2 (n=11) received a dose of 30 mg/kg IV bolus followed by 6 mg/kg/hr IV infusion for 4 hours. Group 3 (n=9) received a dose of 10 mg/kg IV bolus followed by 2 mg/kg/hr IV infusion for 4 hours. Group 3 rats were also treated at 120 minutes, 180 minutes and 360 minutes post-occlusion. Group 4 (n=8) received a dose of 3 mg/kg IV bolus followed by […] IV infusion for 4 hours.
Two additional drug treated groups received 2-(3-sulfanylpropyl)pentanedioic acid. For each rat, the treatment was initiated at 120 minutes post middle cerebral artery occlusion (MCAO) by an IV bolus injection which was immediately followed by IV infusion for 4 hours at rate of 0.5 ml/hr. Group 5 received a dose of 30 mg/kg IV bolus followed by 6 mg/kg/hr IV infusion for 4 hours. Group 6 received a dose of 10 mg/kg IV bolus followed by 2 mg/kg/hr IV infusion.
Twenty two hours following the reperfusion, the rats were euthanized and their brains were removed. Seven coronal sections (2 mm thick) were taken and stained with 1% solution of 2,3,5-triphenyl-tetraxolium chloride (TTC) for 20 minutes and then fixed in 10% formalin. The anterior and posterior surface of the most rostral brain section and the posterior surface of each of the remaining 6 sections were imaged. The quantification of infarct size of each brain was obtained using a computer aided-digital imaging analysis system (LOATS). The brain regions completely lacking TTC-staining were characterized as representative of infarcted tissue. The total infarct volume for each rat was calculated by numeric integration of the respective sequential brain areas.
Male Sprague-Dawley rats (260-320 g) were used. They were individually housed and allowed free access to food and water. Two days prior to the experiment, they were given restricted food if necessary to maintain the body weight Each rat received two surgeries: femoral vein cannulation for IV infusion and MCAO. During surgeries, the rat was anesthetized with 1.5% halothane delivered in oxygen via an inhalation mask. The body temperature was monitored and regulated at normothermic level using a homeothermic heating system. First, a catheter was inserted into the left femoral vein. Thirty minutes later, the rat was reanesthetized for MCAO surgery. The MCAO was achieved using the endovascular suture method described by Long et al., Stroke, Vol. 20, pp. 84-91 (1989). Specifically, the right external carotid artery (ECA) was exposed, coagulated and transected. A 3-0 monofilament nylon suture with a blunted tip and a coat of 0.05% Poly-1-Lysine was introduced into the proximal stump of the ECA via an arteriotomy. It was advanced 22 mm from the carotid bifurcation until it lodged in the proximal region of the anterior cerebral artery, thereby occluding the origin of the MCA. The rats were allowed to wake up; 2 hours later, the rats were reanesthetized for reperfusion, during which the nylon suture was retracted to the stump of the ECA allowing blood recirculation to the MCA.
For `O=C(O)CCC(CCCS)C(=O)O` (stereo not shown) [2-(3-sulfanylpropyl)pentanedioic acid], the “infarct size vs. vehicle treated rats” value is listed as “significantly smaller infarct size”.

The test is the same for the next values; noted with them: TABLE IV(b); dose 10 mg/kg, 120 minutes post MCAO.
As to `O=C(O)CCC(CCCS)C(=O)O` (stereo not shown) [2-(3-sulfanylpropyl)pentanedioic acid], the “% Protect” value is listed as 21%.

The same test, now with this note: TABLE IV(b); dose 30 mg/kg, 120 minutes post MCAO.
Regarding `O=C(O)CCC(CCCS)C(=O)O` (stereo not shown) [2-(3-sulfanylpropyl)pentanedioic acid], the “% Protect” value is on record as 52%.

The test system of the next test is LNCaP cells.
Experiment: not given
The conditions noted are these: as the concentration increased; cited from earlier work.
Turning to `N[C@@H](Cn1oc(=O)[nH]c1=O)C(=O)O` [quisqualic acid, reference compound], the LNCaP cell proliferation entry was “decreased significantly”.

In a further test the test system is cortical cell cultures. In words: in vitro assay of NAALADase inhibitors on ischemia in cortical cell cultures. The conditions noted are these: concentration required to cause a 50% reduction in glutamate toxicity following an ischemic insult (potassium cyanide and 2-deoxyglucose). Type of test: cell-based. The source says:
Some results are set forth in U.S. Pat. Nos. 5,672,592, 5,795,877, 5,863,536, 5,880,112 and 5,902,817, allowed U.S. patent application Ser. Nos. 08/825,997, 08/833,628, 08/842,360 and 08/899,319 for which the issue fees have been paid, the entire contents of which patents and applications are herein incorporated by reference. Other results are provided below in TABLE III.
For orientation: EC50 means the concentration at which the effect is half-maximal. Read a high EC50 as weaker potency. Turning to `CC(C)(C)c1ccc(NCP(=O)(O)CC(CCC(=O)O)C(=O)O)cc1` (stereo not shown), the EC50 turned out to be 35 nM.
On the same count and under the same terms, for `O=C(O)CCC(CP(=O)(O)CN1C(=O)c2ccccc2C1=O)C(=O)O` (stereo not shown) the value was 13 nM.
On the same count and under the same terms, in the case of `CC(CS)CC(CCC(=O)O)C(=O)O` (stereo not shown) [2-(3-sulfanyl-2-methylpropyl)pentanedioic acid] it was 80 nM; in that of `O=C(O)CCC(CP(=O)(O)CNCc1ccccc1)C(=O)O` (stereo not shown), 0.9 nM.
As for `CCC(CS)C(CCC(=O)O)C(=O)O` (stereo not shown) [2-(1-ethyl-2-sulfanylethyl)pentanedioic acid], the EC50 was found to be 62 nM.
On the same count and under the same terms, in the case of `COc1ccc(NCP(=O)(O)CC(CCC(=O)O)C(=O)O)cc1` (stereo not shown) it was 10 nM; in that of `O=C(O)CCC(CP(=O)(O)C(NCc1ccccc1)c1ccccc1)C(=O)O` (stereo not shown), 1 nM.
Compound `O=C(O)CCC(CP(=O)(O)CNc1ccccc1)C(=O)O` (stereo not shown) displayed a concentration for a half-maximal effect (EC50) of 12 nM.
Same read-out and setting: for `CCCCC(S)CC(CCC(=O)O)C(=O)O` (stereo not shown) [2-(2-sulfanylhexyl)pentanedioic acid] the value was 1000 nM.
Same read-out and setting: in the case of `O=C(O)CCC(CP(=O)(O)CC(CCC(=O)O)C(=O)O)C(=O)O` (stereo not shown) it was 0.04 nM.
`CC(CS)C(CCC(=O)O)C(=O)O` (stereo not shown) [2-(1-methyl-2-sulfanylethyl)pentanedioic acid]: the EC50 was 141 nM.
Same read-out and setting: in the case of `O=C(O)CCC(CCCCS)C(=O)O` (stereo not shown) [2-(4-sulfanylbutyl)pentanedioic acid] it was 36 nM; in that of `O=C(O)CCC(CCSSCCC(CCC(=O)O)C(=O)O)C(=O)O` (stereo not shown) [2-[2-[(3,5-dicarboxypentyl)dithio]ethyl]pentanedioic acid], 17 nM; in that of `Cc1ccc(NCP(=O)(O)CC(CCC(=O)O)C(=O)O)cc1` (stereo not shown), 11 nM.
On the same count and under the same terms, in the case of `O=C(O)CCC(CCCS)C(=O)O` (stereo not shown) [2-(3-sulfanylpropyl)pentanedioic acid] it was 13 nM.
Same read-out and setting: in the case of `O=C(O)CCC(CP(=O)(O)CNc1ccc(F)cc1)C(=O)O` (stereo not shown) it was 3 nM; in that of `O=C(O)CCC(CP(=O)(O)CNS(=O)(=O)c1ccccc1)C(=O)O` (stereo not shown), 792 nM; in that of `O=C(O)CCC(CC(S)c1ccccc1)C(=O)O` (stereo not shown) [2-(2-phenyl-2-sulfanylethyl)pentanedioic acid], 29 nM.
`O=C(O)CCC(CP(=O)(O)CC(CCC(=O)OCc1ccccc1)C(=O)OCc1ccccc1)C(=O)O` (stereo not shown) yielded an EC50 of 0.01 nM.

Tested on in a further test: not listed separately
The test is described as follows: Example 14: each of the Examples and in vitro and in vivo assays described above. Particulars: each of their respective assays and Examples.
For the compound `CC(S)CC(CCC(=O)O)C(=O)O` (stereo not shown) [2-(2-sulfanylpropyl)pentanedioic acid], the “in vitro or in vivo activity” value is given as “exhibit in vitro or in vivo activity”.
The same measure, in the same setting: in the case of `O=C(O)CCC(CCCS)C(=O)O` (stereo not shown) [2-(3-sulfanylpropyl)pentanedioic acid] it was “exhibit in vitro or in vivo activity”.

The values are drawn from US20030083374A1, “NAALADase inhibitors useful as pharmaceutical compounds and compositions” (priority 1998, published 2003).
